Assay results: publication PMC6943417, “Housefly Pupae-Derived Antioxidant Peptides Exerting Neuroprotective Effects on Hydrogen Peroxide-Induced Oxidative Damage in PC12 Cells” (Molecules, 2019)
Where no end group is shown, it is not given here.

Tested on: pepsin and pancreatin
Assay type: in vitro ADME
Protocol: The ABTS cation radical scavenging activity assay was conducted according to the manufacture instruction. […] The ABTS cation radical scavenging activity was calculated by the following formula: ABTS cation radical scavenging activity (%) = (1 − A1/A0) × 100%(2) where A1 and A0 were the absorbances of sample group and control group, respectively. The sample solution of control group was replaced with deionized water. Ascorbic acid was used as a positive control.
Thermal stability of synthetic peptides was determined according to the method of Yarnpakdee et al. with minor modifications. The synthetic peptides were respectively incubated at 25, 60, 70, 80, 90 °C for 30 min and then measured their scavenging ability of ABTS cation radical. The ability of synthetic peptides against pH treatments was measured according to Zhu et al.. In brief, pH of peptide solution was adjusted to 1, 3, 5, 7, 9, 11, incubated at room temperature for 1 h, and then ABTS cation radical scavenging activity of the treated peptides was measured. A two-stage digestion of protease in vitro (pepsin-digestion for 1 h and then pancreatin-digestion for 2 h at 37 °C) was performed as described by Zhang et al.. The ABTS cation radical scavenging ability was evaluated to assess the peptides stability against GI digestion.

Row | Sequence | change in ABTS radical scavenging ability after simulated GI digestion
1 | DFTPVCTTELGR [DR12, Asp-Phe-Thr-Pro-Val-Cys-Thr-Thr-Glu-Leu-Gly-Arg] | slight decrease
2 | ARFEELCSDLFR [AR12, Ala-Arg-Phe-Glu-Glu-Leu-Cys-Ser-Asp-Leu-Phe-Arg] | no significant change
